Data published in patent publication US12628829B2, “Compositions comprising recombianant Bacillus cells and an insecticide” (BASF CORPORATION, priority 2014, dated 2026).

Tested on: Maize
Test: Plant growth promotion, maize whole plant biomass after soil drench
Type: in vivo
Experimental: For instance, the formula and analysis can be applied to an evaluation of plant growth promotion. Such an assay is evaluated several days after the applications to plants. 100% means plant weight which corresponds to that of the untreated control plant. Efficacy means in this case the additional % of plant weight in comparison to that of the untreated control.
Experiments were conducted to analyze efficacy of a combination of flupyradifurone and a fermentation product of recombinant Bacillus thuringiensis cells expressing phospholipase C (“BEPC”). Maize seeds were grown in sterile mixture of synthetic media and sand in small three-inch square pots on light racks in a plant growth room at 25-28° C. and 50% humidity for about 14 days. Two seeds were planted in each pot. At planting, the growing media in each pot was drenched with the treatments described below. After 14 days, plants were measured for whole plant biomass. In the tables below, UTC refers to untreated control. “Calculated” refers to the expected effect calculated using the above-described Colby equation and “Efficacy” refers to the actual effect observed.
The SIVANTO® product, which contains flupyradifurone as its active ingredient (17.09% flupyradifurone), was diluted in 50 mL water and the diluted solution was used to drench the growing media. The application rate shown below refers to the amount of active ingredient (i.e., flupyradifurone) applied to the growing media.
A recombinant Bacillus cereus family member (Bacillus thuringiensis BT013A) expressing phospholipase C on its exosporium (BEPC) was generated as follows. […]
To obtain whole broth cultures of BEPC, 15 ml conicals containing brain heart infusion media (BHI) were inoculated with BEPC and grown for 7-8 hours at around 30° C. at a shaker setting of 300 rpm. […] After approximately 2 days of incubation, when sporulation was at least 95% completed, the culture broth was harvested and colony forming units calculated. […]

Compound: O=C1C=C(N(Cc2ccc(Cl)nc2)CC(F)F)CO1 [Flupyradifurone, flupyradifurone]
- Efficacy % (actual effect observed: additional % of plant weight versus UTC, 14 days): 3%
- Whole Plant Biomass (growing media drenched at planting, measured after 14 days, flupyradifurone 1.36 mg/pot, BEPC 7 × 10^8 CFU/pot): 3.50 g
- Found % (plant weight relative to UTC = 100, drench at planting, 14 days): 103%
